Data published in patent publication US5965372A, “Genetic sequences encoding glucocorticoid dehydrogenases and uses thereof” (Baker Medical Research Institute, priority 1996, dated 1999).

Legend:
[1] = target: T1, 11βHSD2 (Homo sapiens, UniProt P80365); assay: Directionality and end product inhibition in intact pHSD2 transfected CHOP cells; assay type: cell-based; conditions: monolayer cultures, 1.5 hours at 37° C., 1-2 nM labelled substrate, TLC
T1 construct: homogenates or intact cells
T1 sequence (P80365 1-405 V148L): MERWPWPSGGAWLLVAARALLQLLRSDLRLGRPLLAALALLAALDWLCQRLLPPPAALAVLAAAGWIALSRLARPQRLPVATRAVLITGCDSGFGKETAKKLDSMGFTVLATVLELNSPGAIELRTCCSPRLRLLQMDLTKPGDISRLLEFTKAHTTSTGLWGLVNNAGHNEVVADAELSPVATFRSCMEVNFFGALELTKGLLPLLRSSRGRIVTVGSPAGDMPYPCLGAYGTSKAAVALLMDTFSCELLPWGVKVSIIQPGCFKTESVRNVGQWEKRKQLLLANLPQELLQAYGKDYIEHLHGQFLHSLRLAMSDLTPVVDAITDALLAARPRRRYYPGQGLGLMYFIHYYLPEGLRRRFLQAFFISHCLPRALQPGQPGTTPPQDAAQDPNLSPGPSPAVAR
Method: To determine directionality and extent of end production inhibition of the enzyme encoded by pHSD2, monolayer cultures of transfected CHOP cells were incubated for 1.5 hours at 37° C. with 1-2 nM labelled substrates plus 10 nM corresponding unlabelled 11-dehydro metabolite (FIG. 2b). The culture medium was then removed, extracted and assayed by TLC for the presence of the 11-dehydro metabolite.
Dehydrogenase activity was also estimated in the presence of an excess of the respective 11-dehydro metabolite (FIG. 2b, III).

[2] = target: T1, 11βHSD2; assay: Km determination in homogenates of pHSD2 transfected CHOP cells; assay type: biochemical; conditions: double reciprocal plot, 37° C., mean±SD, n=3
Text: The efficiency of the dehydrogenase may be further increased by mechanisms such as intracellular compartmentalisation of the enzyme.

[3] = target: T1, 11βHSD2; assay: Cofactor specificity of glucocorticoid metabolism in homogenates of pHSD2 transfected CHOP cells; assay type: biochemical; conditions: 1 mM NAD+ or 1 mM NADP+, 37° C. for 40 minutes, TLC
Method: CHOP cells were transfected with plasmid pHSD2, which contains an insert encoding 11βHSD2. After 60 hours incubation in 85 mm plates, cellular homogenates were prepared and assayed for their ability to metabolise glucocorticoid substrates in the presence of 1 mM NAD+, or 1 mM NADP+. Confluent cells were homogenised in 1 ml of homogenisation buffer (0.25 M sucrose, 10 MM phosphate, pH 7). Reaction mixtures (500 μl) contained either 40 μl of homogenate plus [^3 H]corticosterone, or 80 μl of homogenate plus [^3 H]cortisol, or 120 μl of homogenate plus [^3 H]dexamethasone, in homogenisation buffer. All reactions contained 1-2 nM tritiated glucocorticoid substrate plus 10 nM unlabelled glucocorticoid substrate. Reaction mixtures were incubated at 37° C. for 40 minutes and steroid metabolites were assayed by thin layer chromatography.

Km [2] [nM]	SMILES	metabolite formation by intact transfected CHOP cells [1]	glucocorticoid metabolism to 11-dehydro metabolite, cofactor dependence [3]
–	C[C@]12CC(=O)[C@H]3[C@@H](CCC4=CC(=O)CC[C@@]43C)[C@@H]1CC[C@@H]2C(=O)CO [11-dehydro corticosterone]	no metabolite formed	–
5.1 ± 1.2	C[C@]12C[C@H](O)[C@H]3[C@@H](CCC4=CC(=O)CC[C@@]43C)[C@@H]1CC[C@@H]2C(=O)CO [corticosterone]	converted	only showed significant glucocorticoid metabolism when NAD+, but not NADP+, was included as a cofactor
–	C[C@]12CCC(=O)C=C1CC[C@@H]1[C@@H]2[C@@H](O)C[C@@]2(C)[C@H]1CC[C@]2(O)C(=O)CO [cortisol]	converted	only showed significant glucocorticoid metabolism when NAD+, but not NADP+, was included as a cofactor
–	C[C@]12CCC(=O)C=C1CC[C@@H]1[C@@H]2C(=O)C[C@@]2(C)[C@H]1CC[C@]2(O)C(=O)CO [cortisone]	no metabolite formed	–
–	C[C@@H]1C[C@H]2[C@@H]3CCC4=CC(=O)C=C[C@]4(C)[C@@]3(F)[C@@H](O)C[C@]2(C)[C@@]1(O)C(=O)CO [dexamethasone]	–	only showed significant glucocorticoid metabolism when NAD+, but not NADP+, was included as a cofactor
